Results taken from patent US12590099B2, “Inhibitors of histone deacetylase useful for the treatment or prevention of HIV infection” (Merck Sharp & Dohme LLC, priority 2018, dated 2026).

Legend:
Format in all cases: biochemical
Recombinant human HDAC8 = molecular target: T1, Recombinant human HDAC8 (Homo sapiens, UniProt Q9BY41); test: Human HDAC enzyme inhibitor Fluor-de-Lys assay, HDAC8
T1 construct: purchased Enzo Life Sciences BML-SE145-0100
T1 sequence (Q9BY41 1-377): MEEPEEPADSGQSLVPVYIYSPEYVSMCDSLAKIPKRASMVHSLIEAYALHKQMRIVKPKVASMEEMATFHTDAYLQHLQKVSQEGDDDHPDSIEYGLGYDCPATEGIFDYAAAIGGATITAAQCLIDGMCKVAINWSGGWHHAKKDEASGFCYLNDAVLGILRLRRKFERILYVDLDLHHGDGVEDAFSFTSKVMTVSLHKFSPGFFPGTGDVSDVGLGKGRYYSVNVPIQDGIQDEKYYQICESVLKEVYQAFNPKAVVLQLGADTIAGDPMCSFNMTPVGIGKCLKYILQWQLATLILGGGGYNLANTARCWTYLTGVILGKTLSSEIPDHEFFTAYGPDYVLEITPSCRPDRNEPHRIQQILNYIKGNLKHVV

Recombinant human HDAC2 = molecular target: T2, Recombinant human HDAC2 (Homo sapiens, UniProt Q92769); test: Human HDAC enzyme inhibitor Fluor-de-Lys assay, HDAC2
T2 construct: Full length human HDAC2-FLAG was expressed in baculovirus infected Sf9 cells; FLAG (C); made in house; host or cells: Sf9 (baculovirus)
In short: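 Fluor-de-Lys format at room temperature (23° C.): compounds titrated 10-point, 1:3, preincubated with HDAC before substrate addition. Developer with excess HDAC inhibitor ends the reaction, and trypsin-liberated AMC fluorescence is the read-out.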

HDAC6 = molecular target: T3, HDAC6 (Homo sapiens, UniProt Q9UBN7); test: Human HDAC enzyme inhibitor Fluor-de-Lys assay, HDAC6
T3 sequence (Q9UBN7 1-1215): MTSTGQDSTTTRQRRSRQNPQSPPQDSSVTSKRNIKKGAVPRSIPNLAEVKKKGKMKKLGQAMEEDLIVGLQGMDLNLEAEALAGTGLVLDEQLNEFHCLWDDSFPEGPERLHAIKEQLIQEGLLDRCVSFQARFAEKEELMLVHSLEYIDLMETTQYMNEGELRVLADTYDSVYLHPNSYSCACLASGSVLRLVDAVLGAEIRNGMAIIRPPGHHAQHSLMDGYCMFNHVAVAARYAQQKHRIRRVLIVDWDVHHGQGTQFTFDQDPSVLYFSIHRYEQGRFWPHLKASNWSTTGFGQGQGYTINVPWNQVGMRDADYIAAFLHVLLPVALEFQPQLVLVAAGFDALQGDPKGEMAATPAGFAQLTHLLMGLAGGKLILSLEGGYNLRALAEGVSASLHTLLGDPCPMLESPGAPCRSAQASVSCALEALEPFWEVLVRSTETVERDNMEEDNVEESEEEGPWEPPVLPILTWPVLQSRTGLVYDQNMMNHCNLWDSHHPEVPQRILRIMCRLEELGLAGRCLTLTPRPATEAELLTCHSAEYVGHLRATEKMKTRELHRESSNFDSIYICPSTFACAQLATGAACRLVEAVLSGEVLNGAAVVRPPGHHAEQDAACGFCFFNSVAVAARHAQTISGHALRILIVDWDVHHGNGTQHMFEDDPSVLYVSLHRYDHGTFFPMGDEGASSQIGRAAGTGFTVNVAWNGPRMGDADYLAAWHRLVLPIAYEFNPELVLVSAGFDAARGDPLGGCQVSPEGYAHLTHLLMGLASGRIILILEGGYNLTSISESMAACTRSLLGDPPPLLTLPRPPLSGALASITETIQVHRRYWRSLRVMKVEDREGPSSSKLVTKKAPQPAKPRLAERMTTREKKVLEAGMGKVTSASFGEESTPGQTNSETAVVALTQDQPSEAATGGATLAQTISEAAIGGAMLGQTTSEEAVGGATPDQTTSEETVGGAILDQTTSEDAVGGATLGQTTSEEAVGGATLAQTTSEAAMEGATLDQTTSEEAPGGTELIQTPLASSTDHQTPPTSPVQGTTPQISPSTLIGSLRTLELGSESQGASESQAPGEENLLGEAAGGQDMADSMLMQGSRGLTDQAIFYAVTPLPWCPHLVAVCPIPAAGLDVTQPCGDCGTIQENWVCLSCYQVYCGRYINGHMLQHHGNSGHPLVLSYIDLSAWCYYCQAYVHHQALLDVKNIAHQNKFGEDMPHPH

[1] = molecular target: T4, Recombinant human HDAC3/SMRT heterodimer (Homo sapiens, UniProt O15379); test: Human HDAC enzyme inhibitor Fluor-de-Lys assay, HDAC3/SMRT
T4 construct: FLAG (C); made in house

Recombinant human HDAC1 = molecular target: T5, Recombinant human HDAC1 (Homo sapiens, UniProt Q13547); test: Human HDAC enzyme inhibitor Fluor-de-Lys assay, HDAC1
T5 construct: FLAG (C); made in house
In short: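 Fluor-de-Lys format at room temperature (23° C.): compounds titrated 10-point, 1:3, preincubated with HDAC before substrate addition; HDAC1 run at 0.3 nM enzyme with 20 μM BML-KI104. Developer with excess HDAC inhibitor ends the reaction, and trypsin-liberated AMC fluorescence is the read-out.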

T2 sequence (Q92769 whole entry): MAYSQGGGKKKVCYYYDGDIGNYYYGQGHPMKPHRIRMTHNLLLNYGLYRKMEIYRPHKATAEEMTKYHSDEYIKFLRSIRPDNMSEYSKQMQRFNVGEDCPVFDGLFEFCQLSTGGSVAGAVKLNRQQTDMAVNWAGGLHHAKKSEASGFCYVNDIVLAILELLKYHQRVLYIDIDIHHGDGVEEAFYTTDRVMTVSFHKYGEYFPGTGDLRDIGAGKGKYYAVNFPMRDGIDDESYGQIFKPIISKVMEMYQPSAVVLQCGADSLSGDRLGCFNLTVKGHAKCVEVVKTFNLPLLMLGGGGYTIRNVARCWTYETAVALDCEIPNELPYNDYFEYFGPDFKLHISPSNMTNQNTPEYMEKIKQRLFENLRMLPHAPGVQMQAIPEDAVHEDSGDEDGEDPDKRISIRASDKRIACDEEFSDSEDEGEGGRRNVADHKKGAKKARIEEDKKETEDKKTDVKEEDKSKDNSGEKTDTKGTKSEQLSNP
T5 sequence (Q13547 whole entry): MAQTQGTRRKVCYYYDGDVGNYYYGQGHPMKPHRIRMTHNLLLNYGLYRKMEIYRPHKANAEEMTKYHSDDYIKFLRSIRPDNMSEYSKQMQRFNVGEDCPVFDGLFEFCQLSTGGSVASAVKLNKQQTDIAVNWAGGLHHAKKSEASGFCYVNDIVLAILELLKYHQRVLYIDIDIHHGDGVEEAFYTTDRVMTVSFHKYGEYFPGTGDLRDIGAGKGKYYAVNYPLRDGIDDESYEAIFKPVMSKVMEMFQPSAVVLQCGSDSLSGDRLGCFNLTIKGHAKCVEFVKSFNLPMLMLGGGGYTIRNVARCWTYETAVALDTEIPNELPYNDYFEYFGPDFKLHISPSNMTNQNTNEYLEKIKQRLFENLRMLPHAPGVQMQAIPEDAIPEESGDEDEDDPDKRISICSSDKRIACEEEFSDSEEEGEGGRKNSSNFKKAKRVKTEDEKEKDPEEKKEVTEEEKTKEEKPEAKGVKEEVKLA
T4 sequence (O15379 whole entry): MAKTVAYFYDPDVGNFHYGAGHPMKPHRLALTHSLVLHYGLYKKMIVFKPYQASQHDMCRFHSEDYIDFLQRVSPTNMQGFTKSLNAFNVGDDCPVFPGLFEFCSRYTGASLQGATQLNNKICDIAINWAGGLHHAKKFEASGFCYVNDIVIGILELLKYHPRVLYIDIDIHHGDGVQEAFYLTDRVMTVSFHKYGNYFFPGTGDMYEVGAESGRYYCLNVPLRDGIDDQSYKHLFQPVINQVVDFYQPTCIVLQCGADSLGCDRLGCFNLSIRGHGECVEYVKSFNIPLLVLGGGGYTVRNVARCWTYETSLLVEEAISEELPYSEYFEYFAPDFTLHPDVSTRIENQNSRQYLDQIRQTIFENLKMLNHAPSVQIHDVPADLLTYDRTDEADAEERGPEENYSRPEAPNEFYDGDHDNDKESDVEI
T4 sequence (Q9Y618 1-899 partner limits assumed): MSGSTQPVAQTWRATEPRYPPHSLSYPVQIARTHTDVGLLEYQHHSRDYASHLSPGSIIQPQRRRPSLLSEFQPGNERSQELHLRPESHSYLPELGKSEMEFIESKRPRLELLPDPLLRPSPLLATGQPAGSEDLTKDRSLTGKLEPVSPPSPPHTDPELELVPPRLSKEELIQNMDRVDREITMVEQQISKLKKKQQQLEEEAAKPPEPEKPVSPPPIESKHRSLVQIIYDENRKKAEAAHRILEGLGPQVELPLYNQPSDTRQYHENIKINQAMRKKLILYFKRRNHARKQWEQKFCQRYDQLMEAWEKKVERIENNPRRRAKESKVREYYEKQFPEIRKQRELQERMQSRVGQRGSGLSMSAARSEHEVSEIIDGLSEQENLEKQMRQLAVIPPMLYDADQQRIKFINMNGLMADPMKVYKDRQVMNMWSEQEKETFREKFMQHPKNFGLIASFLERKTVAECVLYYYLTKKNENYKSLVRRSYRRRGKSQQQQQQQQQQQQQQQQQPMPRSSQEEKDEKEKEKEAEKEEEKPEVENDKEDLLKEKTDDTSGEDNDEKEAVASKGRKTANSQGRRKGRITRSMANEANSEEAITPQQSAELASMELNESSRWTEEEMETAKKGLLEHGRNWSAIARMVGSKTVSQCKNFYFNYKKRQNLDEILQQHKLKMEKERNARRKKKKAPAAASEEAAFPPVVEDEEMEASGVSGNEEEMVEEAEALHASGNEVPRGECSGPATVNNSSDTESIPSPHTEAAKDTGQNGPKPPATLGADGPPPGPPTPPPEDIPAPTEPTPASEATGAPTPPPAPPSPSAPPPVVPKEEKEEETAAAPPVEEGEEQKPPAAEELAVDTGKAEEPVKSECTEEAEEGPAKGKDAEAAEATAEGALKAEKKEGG

| SMILES | IC50 (Recombinant human HDAC8) [nM] | IC50 (Recombinant human HDAC2) [nM] | IC50 (HDAC6) [nM] | IC50 [1] [nM] | IC50 (Recombinant human HDAC1) [nM] |
| --- | --- | --- | --- | --- | --- |
| CCC(=O)CCCCC[C@H](NC(=O)[C@H]1CC12CCN(C)CC2)c1ncc(-c2ccc3c(ccc(=O)n3C)c2)o1 [Compound 109] | > 15000 | 9.4 | 13400 | 2.98 | 3.52 |
| CCC(=O)CCCCC[C@H](NC(=O)C1=NOC2(CCN(C)CC2)C1)c1ncc(-c2cc3ccc(C)nc3cc2F)o1 [Compound 221] | > 900 | 54.5 | > 900 | 13.6 | 8.62 |
| CCC(=O)CCCCC[C@H](NC(=O)C1(CC(C)C)CC2(CN(C)C2)C1)c1ncc(-c2ccc3nc(C)ccc3c2)[nH]1 [Compound 157] | 4180 | 11.9 | 8530 | 4.01 | 5.39 |
| CCN1CCC2(CC1)C[C@@H]2C(=O)N[C@@H](CCCCCC(=O)CC1CCC1)c1ncc(-c2cc3ccc(C)nc3cc2OC)o1 [Compound 184] | > 45000 | 38.8 | 9280 | 18.4 | 9.51 |
| COc1cc2nc(C)ccc2cc1-c1cnc([C@H](CCCCCC(=O)CC2CCC2)NC(=O)[C@H]2CC23CCN(C)CC3)o1 [Compound 185] | > 45000 | 38 | 36400 | 26 | 15.1 |
| CCC(=O)CCCCC[C@H](NC(=O)[C@H]1CC12CCN(CC1CC1)CC2)c1ncc(-c2ccc3nc(C4CC4)ccc3c2)[nH]1 [Compound 104] | 5020 | < 1.5 | 5300 | < 1.5 | < 1.5 |
| CCC(=O)CCCCC[C@H](NCCN(C)C)c1ncc(-c2cc3ccc(C)nc3cc2OC)[nH]1 [Compound 217, (9S)-9-{[2-(dimethylamino)ethyl]amino}-9-[5-(7-methoxy-2-methylquinolin-6-yl)-1H-imidazol-2-yl]nonan-3-one] | > 900 | 50.3 | > 900 | 10.9 | 4.56 |
| CCC(=O)CCCCC[C@H](NC(=O)[C@H]1CC12CCN(C)CC2)c1ncc(-c2cc3ccc(=O)n(C)c3cc2OC)o1 [Compound 198] | > 900 | 3.8 | 426 | 0.65 | 0.87 |
| CCC(=O)CCCCC[C@H](NC(=O)[C@H]1CC12CCN(CC)CC2)c1ncc(-c2ccc3c(cnn3C3CC3)c2)[nH]1 [Compound 159] | 4620 | 2.4 | 2950 | 0.49 | 0.44 |
| CCC(=O)CCCCC[C@H](NC(=O)C1CC12CCN(C)C(C)(C)C2)c1ncc(-c2ccc3nc(C)ccc3c2)[nH]1 (single isomer, unassigned) [Compound 133] | 2060 | 2.1 | 879 | < 1.5 | < 1.5 |
| CCC(=O)CCCCC[C@H](NC(=O)[C@H]1CC12CCN(C)CC2)c1ncc(-c2cc(OC)c3ccccc3n2)[nH]1 [Compound 170] | 835 | 16.9 | 923 | 4.84 | 5.79 |
| CCC(=O)CCCCC[C@H](NC(=O)C1CN(C)C1)c1[nH]c(-c2ccc(F)cc2)nc1Br [Compound 65, N-{(1S)-1-[4-bromo-2-(4-fluorophenyl)-1H-imidazol-5-yl]-7-oxononyl}-1-methylazetidine-3-carboxamide] | 40000 | 306 | > 45000 | 20.6 | 44.9 |
| CCC(=O)CCCCC[C@H](NC(=O)[C@H]1CC12CCN(C)CC2)c1ncc(-c2ccc3cnc(OC)cc3c2)[nH]1 [Compound 113] | 2180 | 6.6 | > 4500 | 1.42 | 1.37 |
| CCC(=O)CCCCC[C@H](NC(=O)[C@H]1CC12CCN(CC)CC2)c1ncc(-c2ccc3c(=O)n(C4CC4)ccc3c2)[nH]1 [Compound 150] | 4370 | 1.4 | 7050 | 0.25 | 0.19 |
| CCC(=O)CCCCC[C@H](NC(=O)[C@H]1CC12CCN(C)CC2)c1ncc(-c2ccc3ncc(Cl)cc3c2)[nH]1 [Compound 140] | 4110 | 4.5 | 611 | 0.95 | 0.97 |
| CCC(=O)CCCCC[C@H](N)c1ncc(-c2cc3ccc(C)nc3cc2OC)[nH]1 [Compound 209, (S)-9-amino-9-(5-(7-methoxy-2-methylquinolin-6-yl)-1H-imidazol-2-yl)nonan-3-one] | 144 | 151 | > 900 | 21.6 | 52.9 |
| CCC(=O)CCCCC[C@H](NC(=O)[C@H]1CC12CCN(C(C)C)CC2)c1ncc(-c2ccc3nc(C4CC4)ccc3c2)o1 [Compound 116] | > 15000 | 15.7 | 4730 | 3.88 | 4.37 |
| CCC(=O)CCCCC[C@H](NC(=O)C1CC2(CCN(C)CC2)C1)c1ncc(-c2ccc3nn(C)cc3c2)[nH]1 [Compound 145] | 4270 | 12.6 | 5760 | 2.61 | 5.85 |
| CCC(=O)CCCCC[C@H](NC(=O)[C@H]1CC12CCN(C)CC2)c1nnc(-c2cc3ccc(C)nc3cc2OC)o1 [Compound 191] | 43200 | 5.3 | 2050 | 1.68 | 2.16 |
| C=CCN1CCC2(CC1)C[C@@H]2C(=O)N[C@@H](CCCCCC(=O)CC)c1ncc(-c2cccc3c2C2CCC3N2CC=C)[nH]1 (stereo partly drawn) [Compound 180, (1S)—N-{(1S)-7-oxo-1-[5-(9-prop-2-en-1-yl-1,2,3,4-tetrahydro-1,4-epiminonaphthalen-5-yl)-1H-imidazol-2-yl]nonyl}-6-prop-2-en-1-yl-6-azaspiro[2.5]octane-1-carboxamide] | 270 | 29.6 | 2120 | 2.55 | 5.4 |
| CCC(=O)CCCCC[C@H](NC(=O)C1=NOC2(CCN(C)CC2)C1)c1ncc(-c2ccc3nn(C)cc3c2)[nH]1 [Compound 154] | 12100 | 19.5 | 18100 | 2.76 | 6.03 |
| CCC(=O)CCCCC[C@H](NC(=O)C1=NOC2(CCN(C)CC2)C1)c1ncc(-c2ccc3nc(C4CC4)ccc3c2)o1 [Compound 135] | 18300 | 43.5 | > 15000 | 11 | 14.6 |
| CCC(=O)CCCCC[C@H](NC(=O)[C@H]1CC12CCN(C)CC2)c1[nH]c(-c2ccc(F)cc2)nc1C#N [Compound 76] | 16800 | 19.7 | 26600 | 2.88 | 3.85 |
| CCC(=O)CCCCC[C@H](NC(=O)C1CC12CC1CCC(C2)N1C)c1ncc(-c2ccc3ncccc3c2)[nH]1 (single isomer, unassigned) [Compound 166] | 5660 | 2.2 | 229 | 0.32 | 0.37 |
